target: T1, human oxytocin receptor (Homo sapiens, UniProt P30559); assay: Oxytocin binding in CHO cell membranes expressing human oxytocin receptors ([3H]oxytocin radioligand binding); settings: 100 nM
T1 construct: host or cells: CHO cells, stably transfected (pcDNA3.1 vector)
T1 sequence (P30559 1-389): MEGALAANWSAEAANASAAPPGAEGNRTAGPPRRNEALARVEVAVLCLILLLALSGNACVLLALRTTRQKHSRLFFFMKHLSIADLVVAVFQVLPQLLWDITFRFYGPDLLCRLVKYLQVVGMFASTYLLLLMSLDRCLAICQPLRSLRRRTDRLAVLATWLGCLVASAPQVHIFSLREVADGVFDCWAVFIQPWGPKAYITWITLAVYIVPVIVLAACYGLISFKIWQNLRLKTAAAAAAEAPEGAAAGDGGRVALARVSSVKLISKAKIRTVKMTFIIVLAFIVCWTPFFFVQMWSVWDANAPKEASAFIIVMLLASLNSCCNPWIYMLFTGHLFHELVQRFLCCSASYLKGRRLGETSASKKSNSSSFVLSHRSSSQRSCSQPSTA
Description: Oxytocin Binding in Chinese Hamster Ovary Cell Membranes Expressing Human Oxytocin Receptors
Cell Culture medium (e.g. 30 mL for 1:30 split) is immediately added and mixed well to inactivate trypsin. 1 mL of detached cells is added to new culture flasks containing fresh Cell Culture medium (e.g. into 25 mL per T-150 flask), and mixed gently. The cells are incubated at 37° C. in 5% CO2. The medium is changed at 3 to 4 days interval (or as appropriate). […] All steps are done under sterile conditions.
The cells are washed twice gently with Hank's Balanced Salt solution (e.g., use 10 mL per T-150 flask). […] The contents are transferred to centrifuge tubes (50 mL size) kept in ice bath. All subsequent steps are done at 4° C. The tubes are centrifuged at 300×g for 15 min (1380 rpm on SORVAL, Model RT6000D, using rotor for 50 mL tubes). The supernatant is discarded and the cells suspended in homogenizing buffer (10 mM Tris-HCl containing 0.25 M sucrose and 1 mM EDTA, pH 7.4) ensuring that the volume of the buffer is about ten times the volume of the cell pellet. The cells are pooled into a centrifuge tube (50 mL) and homogenized with a Polytron at setting 6 for 10 sec. The homogenate is transferred into a Potter-Elvjehm homogenizer and homogenized with 3 strokes. The homogenate is centrifuged at 1500×g for 10 min at 4° C. (3100 rpm using SORVAL, model RT6000D, using a rotor for 50 mL tubes). The pellet is discarded. The supernatant is centrifuged at 100,000×g for 60 min. at 4° C. (Beckman L8-80M ultracentrifuge; spin at 37,500 rpm with rotor type 70 Ti for 50 mL tubes; 38,000 rpm with rotor type 8OTi for 15 mL tubes; or 35,800 rpm with rotor type 45Ti). The supernantant is discarded and the pellet suspended in 3 to 4 mL of Tris buffer (50 mM TRIS-HCl, pH 7.4). The protein content is estimated by the Bradford or Lowry method. The volume of the membrane suspension is adjusted with the membrane buffer (50 mM Tris-HCl containing 0.1% BSA and 0.1 mM PMSF) to give 3.0 mg/mL (or as appropriate) of protein. The membranes are aliquoted and stored at −70° C.
In wells of a 96-well format microtiter plate, is added 90, 110 or 130 μL (to make up a final volume of 200 μL) of assay buffer containing 50 mM of Tris-HCl (pH 7.4), […], 1 mg % aprotinin, 1 mg % leupeptin, 2 mg % 1,10-phenanthroline, 10 mg % trypsin inhibitor, and 0.1 mM PMSF. The inhibitors are added on the day of the experiment. The components are mixed at room temperature, and then kept in ice bath following adjustment of the pH to 7.4. […] For oxytocin and other peptide ligands, 20 μL of 50% DMSO is added and the assay buffer volume is adjusted accordingly. To each well is added 50 μL of frozen membrane suspension thawed immediately prior to use and diluted in assay buffer to the required concentration (equivalent to 25 to 50 μg of protein/well as needed). 20 μL of 8 nM [^3H]oxytocin in the assay buffer, prepared just before use is added and incubated at room temperature for 60 min. shaking the plate on a mechanical shaker for the first 15 min. The incubation is stopped by rapid filtration of the plate contents followed by washing with ice-cold buffer (50 mM Tris-HCl, pH 7.4) using a cell harvester (Tomtek and Printed filtermat-B filter paper). The filter paper is thoroughly dried (7–12 min. in a microwave oven) and impregnated with MeltiLex B/H melt-on scintillation wax sheets and the radioactivity counted in a betaplate scintillation counter.
Binding data is either reported as percent inhibition at a certain concentration or if an IC50 was calculated, as a nanomolar concentration.

| Compound | OT % inhibition @ 100 nM [%] |
| --- | --- |
| COc1cc(C(=O)N2Cc3ccc(C(=O)N4CCN(c5ccccn5)CC4)n3Cc3ccccc32)ccc1-c1cccc2ccccc12 [Example 83] | 30 |
| COc1cccc(-c2ccc(C(=O)N3Cc4ccc(C(=O)NCc5ccncc5)n4Cc4ccccc43)cc2OC)c1 [Example 98] | 39 |
| COc1cccc(-c2ccc(C(=O)N3Cc4ccc(C(=O)N(C)Cc5cccnc5)n4Cc4ccccc43)cc2OC)c1 [Example 110] | 94 |
| COc1cc(C(=O)N2Cc3ccc(C(=O)N4CCN(c5ccncc5)CC4)n3Cc3ccccc32)ccc1-c1ccccc1C [Example 118] | 83 |

same assay, conditions: 100 nM, read-out: OT % inhibition @ 100 nM

| Compound | inhibition at 0.1 µM [%] |
| --- | --- |
| COc1ccccc1-c1ccc(C(=O)N2Cc3ccc(C(=O)N(C)CCc4ccccn4)n3Cc3ccccc32)cc1OC [Example 64, 10-[(2,2′-Dimethoxy-[1,1′-biphenyl]-4-yl)carbonyl]-N-methyl-N-[2-(2-pyridinyl)ethyl]-10,11-dihydro-5H-pyrrolo[2,1-c][1,4]benzodiazepine-3-carboxamide] | 91 |
| COc1cc(C(=O)N2Cc3ccc(C(=O)N(C)Cc4cccnc4)n3Cc3ccccc32)ccc1-c1ccccc1C [Example 106, 10-[(2-Methoxy-2′-methyl-[1,1′-biphenyl]-4-yl)carbonyl]-N-methyl-N-(3-pyridinylmethyl)-10,11-dihydro-5H-pyrrolo[2,1-c][1,4]benzodiazepine-3-carboxamide] | 98 |
| COc1cc(-c2ccccc2C)c(Cl)cc1C(=O)N1Cc2ccc(C(=O)N(C)Cc3cccnc3)n2Cc2ccccc21 [Example 107, 10-[(6-Chloro-3-methoxy-2′-methyl-[1,1′-biphenyl]-4-yl)carbonyl]-N-methyl-N-(3-pyridinylmethyl)-10,11-dihydro-5H-pyrrolo[2,1-c][1,4]benzodiazepine-3-carboxamide] | 92 |
| COc1cccc(-c2cc(OC)c(C(=O)N3Cc4ccc(C(=O)N(C)Cc5cccnc5)n4Cc4ccccc43)cc2Cl)c1 [Example 108, 10-[(6-Chloro-3,3′-dimethoxy-[1,1′-biphenyl]-4-yl)carbonyl]-N-methyl-N-(3-pyridinylmethyl)-10,11-dihydro-5H-pyrrolo[2,1-c][1,4]benzodiazepine-3-carboxamide] | 83 |
| COc1cc(C(=O)N2Cc3ccc(C(=O)N(C)Cc4cccnc4)n3Cc3ccccc32)ccc1-c1cccc2ccccc12 [Example 109, 10-[3-Methoxy-4-(naphthalen-1-yl)benzoyl]-N-methyl-N-(3-pyridinylmethyl)-10,11-dihydro-5H-pyrrolo[2,1-c][1,4]benzodiazepine-3-carboxamide] | 70 |
| CN(Cc1cccnc1)C(=O)c1ccc2n1Cc1ccccc1N(C(=O)c1ccc(-c3cccc4ccccc34)cc1Cl)C2 [Example 111, 10-[2-Chloro-4-(naphthalen-1-yl)benzoyl]-N-methyl-N-(3-pyridinylmethyl)-10,11-dihydro-5H-pyrrolo[2,1-c][1,4]benzodiazepine-3-carboxamide] | 36 |
| Cc1ccccc1-c1ccc(C(=O)N2Cc3ccc(C(=O)N4CCN(c5ccncc5)CC4)n3Cc3ccccc32)cc1C [Example 114, {10-[(2,2′-Dimethyl-[1,1′-biphenyl]-4-yl)carbonyl]-10,11-dihydro-5H-pyrrolo[2,1-c][1,4]benzodiazepin-3-yl}[4-(4-pyridinyl)-1-piperazinyl]methanone] | 94 |
| COc1cccc(-c2ccc(C(=O)N3Cc4ccc(C(=O)N5CCN(c6ccncc6)CC5)n4Cc4ccccc43)cc2C)c1 [Example 115, {10-[(3′-Methoxy-2-methyl-[1,1′-biphenyl]-4-yl)carbonyl]-10,11-dihydro-5H-pyrrolo[2,1-c][1,4]benzodiazepin-3-yl}[4-(4-pyridinyl)-1-piperazinyl]methanone] | 66 |
| COc1ccccc1-c1ccc(C(=O)N2Cc3ccc(C(=O)N4CCN(c5ccncc5)CC4)n3Cc3ccccc32)cc1 [Example 116, {10-[(2′-Methoxy-[1,1′-biphenyl]-4-yl)carbonyl]-10,11-dihydro-5H-pyrrolo[2,1-c][1,4]benzodiazepin-3-yl}[4-(4-pyridinyl)-1-piperazinyl]methanone] | 101 |
| Cc1ccccc1-c1ccc(C(=O)N2Cc3ccc(C(=O)N4CCN(c5ccncc5)CC4)n3Cc3ccccc32)cc1 [Example 117, {10-[(2′-Methyl-[1,1′-biphenyl]-4-yl)carbonyl]-10,11-dihydro-5H-pyrrolo[2,1-c][1,4]benzodiazepin-3-yl}[4-(4-pyridinyl)-1-piperazinyl]methanone] | 13 |
| COc1cc(-c2ccccc2C)c(Cl)cc1C(=O)N1Cc2ccc(C(=O)N3CCN(c4ccncc4)CC3)n2Cc2ccccc21 [Example 119, {10-[(6-Chloro-3-methoxy-2′-methyl-[1,1′-biphenyl]-4-yl)carbonyl]-10,11-dihydro-5H-pyrrolo[2,1-c][1,4]benzodiazepin-3-yl}[4-(4-pyridinyl)-1-piperazinyl]methanone] | 83 |
| COc1cccc(-c2cc(OC)c(C(=O)N3Cc4ccc(C(=O)N5CCN(c6ccncc6)CC5)n4Cc4ccccc43)cc2Cl)c1 [Example 120, {10-[(6-Chloro-3,3′-dimethoxy-[1,1′-biphenyl]-4-yl)carbonyl]-10,11-dihydro-5H-pyrrolo[2,1-c][1,4]benzodiazepin-3-yl}[4-(4-pyridinyl)-1-piperazinyl]methanone] | 67 |
| COc1cc(C(=O)N2Cc3ccc(C(=O)N4CCN(c5ccncc5)CC4)n3Cc3ccccc32)ccc1-c1cccc2ccccc12 [Example 121, {10-[3-Methoxy-4-(naphthalen-1-yl)benzoyl]-10,11-dihydro-5H-pyrrolo[2,1-c][1,4]benzodiazepin-3-yl}[4-(4-pyridinyl)-1-piperazinyl]methanone] | 57 |
| COc1ccccc1-c1ccc(C(=O)N2Cc3ccc(C(=O)N4CCN(c5ccncc5)CC4)n3Cc3ccccc32)cc1OC [Example 122, {10-[(2,2′-Dimethoxy-[1,1′-biphenyl]-4-yl)carbonyl]-10,11-dihydro-5H-pyrrolo[2,1-c][1,4]benzodiazepin-3-yl}[4-(4-pyridinyl)-1-piperazinyl]methanone] | 61 |
| COc1cccc(-c2ccc(C(=O)N3Cc4ccc(C(=O)N5CCN(c6ccncc6)CC5)n4Cc4ccccc43)cc2OC)c1 [Example 123, {10-[(2,3′-Dimethoxy-[1,1′-biphenyl]-4-yl)carbonyl]-10,11-dihydro-5H-pyrrolo[2,1-c][1,4]benzodiazepin-3-yl}[4-(4-pyridinyl)-1-piperazinyl]methanone] | 95 |
| O=C(c1ccc2n1Cc1ccccc1N(C(=O)c1ccc(-c3cccc4ccccc34)cc1Cl)C2)N1CCN(c2ccncc2)CC1 [Example 124, {10-[2-Chloro-4-(naphthalen-1-yl)benzoyl]-10,11-dihydro-5H-pyrrolo[2,1-c][1,4]benzodiazepin-3-yl}[4-(4-pyridinyl)-1-piperazinyl]methanone] | 24 |
